Test results published in patent publication US11723886B2, “Targeting ocular diseases with novel APE1/Ref-1 inhibitors” (Indiana University Research and Technology Corporation, priority 2018, dated 2023).

Tests used:
[1] = test system: Rf/6a macaque choroidal endothelial cells; assay: In vitro cell proliferation assay (alamarBlue), Rf/6a; type: cell-based; details: Macaca mulatta, Rf/6a choroidal endothelial cells, read-out: GI50 (median growth inhibition), Rf/6a
Experimental: Cells. Primary human retinal microvascular endothelial cells (HRECs) were obtained from Cell Systems, Inc. (Kirkland, Wash.), while the Rf/6a macacque choroidal endothelial cell line was obtained from ATCC (Manassas, Va.). Cells were maintained as described (Basavarajappa et al., EMBO Mol Med 9:786-801 (2017)), re-ordered at least annually, and regularly assessed for mycoplasma contamination.
In vitro cell proliferation assay. Endothelial cell proliferation was measured as described previously (Basavarajappa et al., PLoS One 9:e95694 (2014); Basavarajappa et al., EMBO Mol Med 9:786-801 (2017)). Briefly, 2.5×10^3 cells were seeded in 100 μL of growth medium and plated in each well of 96-well clear-bottom black plates and incubated for 24 hours. APX2009, APX2014, or DMSO vehicle (DMSO final concentration=1%) was added, and the plates were incubated for 24-48 hours in 100 μL complete medium at 37° C. and 5% CO2. AlamarBlue reagent (11.1 μL) was added to each well of the plate and 4 hours later fluorescence readings were taken at excitation and emission wavelengths of 560 nm and 590 nm, respectively, using a Synergy H1 plate reader (BioTek, Winooski, Vt.). GI50 was calculated using GraphPad Prism v. 7.0.

HRECs [2] = assay: EdU incorporation and Ki-67 staining in HRECs; type: cell-based, human
Experimental: EdU incorporation, Ki-67 Staining and TUNEL. These assays were carried out as described previously (Basavarajappa et al., PLoS One 9:e95694 (2014); Basavarajappa et al., EMBO Mol Med 9:786-801 (2017)) with the exception of using chamber slides, not coverslips. Briefly, cells (30,000 per well) were seeded on 8-well chamber slides coated with attachment factors and allowed to attach overnight. Cells were treated with the indicated compound concentrations for 17 hours (overnight). To assay proliferation, cells were incubated with EdU in complete media for 8 hours at 37° C. Cells were then fixed in 4% paraformaldehyde for 20 minutes and permeabilized using 0.25% Triton X-100 prepared in PBS. Cells were incubated with a rabbit-specific monoclonal antibody against Ki-67 (D3B5) (#9129; Cell Signaling, Danvers, Mass.) (1:400) overnight at 4° C. Secondary antibody was Alexa Fluor goat anti-rabbit 488 (A11034; Invitrogen, Carlsbad, Calif.) with DAPI counter-stain for nuclear staining. Proliferating cells that incorporated EdU were detected using the Click-iT EdU Imaging kit (Invitrogen, Carlsbad, Calif.). […] The cells were imaged using a Zeiss AxioImager D2 microscope or an LSM 700 confocal microscope and the percentage of positive cells was counted on three low-power (for TUNEL) or high-power (for Ki-67 and EdU) fields per well using ImageJ software.

HRECs [3] = assay: Scratch wound cell migration assay, HRECs; type: cell-based, human
Experimental: In vitro cell migration assay. Endothelial cell migration was monitored as described before (Basavarajappa et al., PLoS One 9:e95694 (2014); Basavarajappa et al., EMBO Mol Med 9:786-801 (2017)). Briefly, HRECs and Rf/6a were grown until confluency in 12-well plates. Using a sterile 10-μL micropipette tip, a scratch wound was made across the center of each well and fresh complete media containing DMSO or different concentrations of APX2009 or APX2014 compounds were added to the wells (DMSO final concentration=1%). Wells were imaged via digital brightfield microscopy at different time points, and the number of migrated cells into the scratched area was manually counted.

Rf/6a cells = assay: Matrigel tube formation assay, Rf/6a; type: cell-based, macaque; details: mid nanomolar concentrations, vs control
Experimental: In vitro Matrigel tube formation assay. The ability of HRECs and Rf/6a cells to form tubes in vitro was monitored as described before (Basavarajappa et al., PLoS One 9:e95694 (2014); Basavarajappa et al., EMBO Mol Med 9:786-801 (2017)). Briefly, cells were treated with the indicated concentrations of APX2009 or APX2014 compounds or DMSO for 48 hours and then 1.5×10^4 cells in 100 μL of growth medium containing DMSO or APX compounds were added to each well of a 96-well plate that was pre-coated with 50 μL of Matrigel basement membrane (DMSO final concentration=1%). Digital photographs of each well at different time points were taken to measure the in vitro tube formation using the Angiogenesis Analyzer plugin in ImageJ software (v.1.48; http://image.bio.methods.free.fr/ImageJ/?Angiogenesis-Analyzer-for-ImageJ.html).

[4] = test system: murine choroidal explants; assay: Ex vivo choroidal sprouting assay; type: cell-based, mouse; details: for reduction of choroidal sprouting compared to control: 48 hours
From the text: Animals. All animal experiments were approved by the Indiana University School of Medicine Institutional Animal Care and Use Committee and followed the guidelines of the Association for Research in Vision and Ophthalmology Statement for the Use of Animals in Ophthalmic and Visual Research. Wild-type female C57BL/6 mice, 6-8 weeks of age, were purchased from Envigo (Indianapolis, Ind.; for choroidal sprouting experiments) or Jackson Laboratory (Bar Harbor, Me.; for L-CNV) and housed under standard conditions (Wenzel et al., Mol Vis 21:515-522 (2015)). Mice were anesthetized for all procedures by intraperitoneal injections of 90 mg/kg ketamine hydrochloride and 5 mg/kg xylazine, with intraperitoneal atipamezole reversal (1 mg/kg). Treatments were randomly assigned by cage.
Choroidal sprouting assay. Ex vivo Choroidal sprouting was assessed as described previously (Sulaiman et al., Sci Rep 6:25509 (2016); Basavarajappa et al., EMBO Mol Med 9:786-801 (2017)). Briefly, choroid-sclera was dissected from 7 to 8 week old mouse eyes and pieces were embedded in Matrigel (growth factor reduced) and grown in EGM-2 medium containing antibiotics for 72 hours to allow sprouting to initiate. The indicated concentrations of APX2009 and APX2014 compounds (in DMSO, final DMSO concentration 0.5 and 0.2%, respectively) were added and growth allowed to proceed for 48 hours Images were taken and growth was quantified by measuring the distance from the edge of the choroidal piece to the growth front in four directions per sample using ImageJ software.

| Compound | GI50 [1] [µM] | cells going through S phase (Ki-67 staining, EdU incorporation) (HRECs [2]) | cell migration in scratch wound assay, HRECs (HRECs [3]) | ability to form tubes, Rf/6a (Rf/6a cells) | reduction of choroidal sprouting compared to control ([4]; at 1 μM (highest concentration tested)) [%] | concentrations inhibiting choroidal sprouting ex vivo [4] | reduction of choroidal sprouting compared to control ([4]; at 10 μM) [%] |
| --- | --- | --- | --- | --- | --- | --- | --- |
| CCC/C(=C\C1=C(OC)C(=O)c2ccccc2C1=O)C(=O)NOC [APX2014, (2E)-2-[(3-methoxy-1,4-dioxo-1,4-dihydronapthalen-2-yl)methylidene]-N-methoxypentanamide] | 5 | reduced the number of cells going through S phase | significantly inhibited | significantly reduced | ~60 | high nanomolar |  |
| CCC/C(=C\C1=C(OC)C(=O)c2ccccc2C1=O)C(=O)N(CC)CC [APX2009, (2E)-2-[(3-methoxy-1,4-dioxo-1,4-dihydronaphthalen-2-yl)methylidene]-N,N-diethylpentanamide] | 26 | reduced the number of cells going through S phase | significantly inhibited | significantly reduced |  | low micromolar | ~70 |
